From patent US5041438A, “Method for treating retroviral infections with benzodiazepine compounds” (Hoffmann-La Roche Inc., priority 1989, dated 1991)
Entries after “also recorded” stand apart in the source; their conditions may differ. Read-outs that look alike come from different tables or passages of the source.

How the values were obtained:
[1] = test system: HIV/HTLV III, RF strain; test: p24 viral antigen capture assay (ELISA) in C8166 CD4+ T-cells; type: cell-based; conditions: for anti-viral activity in p24 viral antigen capture assay: result in words
Experimental: Compound I was tested for anti-viral activity in the p24 viral antigen capture assay.
The Enzyme Linked Immuno-absorbant Assay (ELISA) was used to test Compound I for anti-HIV activity by measuring virus replication in CD4^+ T-lymphocytes by detecting viral p24 antigen released into the tissue culture supernatant of infected cells.
High titer virus stocks [HIV/HTLV III, RF strain]were grown in H9 cells in RPMI-1640 (Flow Laboratories) supplemented with 10% fetal calf serum, penicillin (100 IU/ml) and streptomycin (100 μg/ml). Cell debris was removed by low speed centrifugation and the supernatant stored at -70° C. until required. The host cell line used in the anti-viral assays was the C8166 CD4^+ T-cell line which is particularly susceptible to infection with HIV. Cells were incubated with 10 TCID50, HIV/HTLV III (RF) at 37° C. for 90 minutes and then washed three times with PBS. Cell aliquots (2×10^5) were resuspended in 1.5 ml growth medium in 6 ml tubes and appropriate amounts of Compound I added and incubated at 37° C. At 72 hours post-infection, the supernatants from the cell cultures were assayed for p24 antigen. The antigen capture ELISA used was purchased from Coulter (Luton, UK). The assays were carried out on supernatants taken from infected cell cultures using the procedure described by the manufacturer. In each assay a positive control was included, together with a supernatant control taken from uninfected cells. The plates were read using the appropriate spectrophotometric detection system. Results of two separate assays are:
ID50 is defined as the dose of compound required to inhibit viral replication by 50 percent. […] Approximately 0.1 μM and 6 μM of Compound I yields 50 percent inhibition of viral replication. 0.003 μM AZT provided 50 percent inhibition of viral replication in one test conducted. ddC provided 50 percent inhibition at a concentration of 0.01 μM in one test.

[2] = test system: HIV; conditions: in most patients; cited from earlier work
[3] = test system: COS cells; test: parallel cytotoxicity assay: SeAP expression under RSV-LTR in COS cells; type: cell-based; conditions: RSV-LTR not responsive to TAT, FIG. 1
Text: (§1) FIG. 1 Illustrates anti-TAT activity of Compound I. COS cells are co-transfected with TAT and Secreted Alkaline Phosphatase (SeAP) genes. The SeAP gene, under the control of the HIV-LTR (responsive to TAT activation) or the RSV-LTR (unresponsive to TAT action) serves as a monitor or reporter gene. SeAP activity in the HIV-LTR combination but not the RSV-LTR combination serves as a measure of TAT activity. Cells containing the RSV-LTR co-transfected gene combination serve as an indicator of the non-specific toxicity of added test compounds. The black bars represent the percent inhibition of SeAP activity by Compound I when the SeAP gene is under the control of HIV-LTR. The hatched bars represent the effect of Compound I on SeAP activity when the SeAP gene is regulated by RSV-LTR. […] The figure includes results from three separate assays.
(§2) Compound I was tested for anti-TAT activity in an anti-TAT assay described in copending patent application, now U.S. Ser. No. 07/428,555 filed Oct. 10, 1989, filed on the same day as the instant application and hereby incorporated by reference. […] The anti-TAT activity is measured by the percent inhibition of SeAP gene expression under the control of HIV-LTR.

[4] = test system: HIV-1 NIT strain; test: inhibition of HIV-cytopathic effect and of viral RNA and antigen production in infected CD4+ CEM cells; type: cell-based; conditions: MOI=1, 3 and 6 days, FIGS. 2 and 3
Experimental: High titer virus stocks (HIV-1 NIT strain) were grown in CD4^+ CR1O cells in RMPI-1640 media (Gibco Laboratories) supplemented with 10% fetal calf serum and 0.1 mg/ml Gentamicin. The collected media were filtered through a 0.8 Micron filter and virus isolates were concentrated 100 fold and stored at -80° C.
CD4^+ CEM cells, propagated in the same medium, were incubated for 60 minutes at 37° C. with diluted stock virus at MOI=1. Cells were washed three times with phosphate buffered saline and resuspended in the medium at 2×10^5 cells/ml. Various quantities of Compound I were added. Three days after infection, numbers of live cells were counted by trypan blue exclusion [Mitsuya, et al. Proc. Natl. Acad. Sci. 83:1911 (1986)]. […] Cells stained with the fluorescent antibody were counted using a fluorescence microscope and the results were expressed as percentage of the total number of cells counted [(Hedenskog et al., J. Med. Virol. 1:9325 (1986)].
The viral RNA in infected cells was quantitized with an RNA-RNA hybridization/reversible target capture procedure [Gillespie et al. Molecular and Cellular Probes, 2:73 (1989)]. […] 2×10^5 live cells, determined by trypan blue exclusion, were used in each assay.
For cytotoxicity testing, uninfected CEM cells were treated with Compound I at similar concentrations and toxicity of the compound was measured by the live-cell count. […]

[5] = test system: TAT; test: anti-TAT assay: SeAP reporter expression under HIV-LTR in COS cells co-transfected with TAT; type: cell-based; conditions: 1, 10 and 100 μM, added 24 h post transfection, assayed 48 h later, FIG. 1
Text: as §1, §2

Structure (SMILES)	IC50 ([1]; Human immunodeficiency virus 1, p24 antigen, C8166 cells, 72 h post-infection, first of two separate assays, read-out: ID50 (dose of compound required to inhibit viral replication by 50 percent)) [nM]	anti-viral activity in p24 viral antigen capture assay [1]	virustatic range (body weight dose) [2]	IC50 ([1]; Human immunodeficiency virus 1, p24 antigen, C8166 cells, 72 h post-infection, second of two separate assays, read-out: ID50 (dose of compound required to inhibit viral replication by 50 percent)) [nM]	nonspecific cytotoxicity (SeAP gene expression under control of RSV-LTR) [3]	anti-HIV activity (HIV-cytopathic effect, viral RNA and antigen production) [4]	anti-TAT activity (inhibition of SeAP gene expression under control of HIV-LTR) [5]	IC50 ([1]; Human immunodeficiency virus 1, C8166, 72 h, read-out: ID50 (dose of compound required to inhibit viral replication by 50 percent), p24 antigen, C8166 cells, 72 h post-infection, first of two separate assays) [nM]	IC50 ([1]; Human immunodeficiency virus 1, C8166, 72 h, read-out: ID50 (dose of compound required to inhibit viral replication by 50 percent), p24 antigen, C8166 cells, 72 h post-infection, second of two separate assays) [nM]
Cc1cn([C@H]2C[C@H](N=[N+]=[N-])[C@@H](CO)O2)c(=O)[nH]c1=O [AZT]	3	active in the p24 assay; also recorded: exhibits anti-viral activity	–	–	–	–	–	–	–
Nc1ccn([C@H]2CC[C@@H](CO)O2)c(=O)n1 [ddC]	–	active in the p24 assay	0.005-0.25 mg/kg body weight	10	–	–	–	–	–
O=C1CN=C(c2ccc[nH]2)c2cc(Cl)ccc2N1 [Compound I, 7-chloro-5-(2-pyrryl)-3H-1,4-benzodiazepin-2(1H)-one]	–	positive results; also recorded: exhibits anti-viral activity	–	–	does not exhibit nonspecific toxicity; also recorded: does not exhibit nonspecific cytotoxicity	inhibition of HIV-cytopathic effect and viral RNA and antigen production	specifically inhibits TAT action; also recorded: exhibits anti-TAT activity; also recorded: specific inhibitor of TAT	100	6000
